Reference: patent US20120196918A1, “PREVENTING ISLET INFLAMMATION AND DYSFUNCTION AND MAINTAINING PROPER GLUCOSE LEVELS BY CONTROLLING eIF5A AND ITS HYPUSINATION” (priority 2009, published 2012)

Legend:
[1] = tested on: STZ-treated C57BL/6J mice; test: Multiple low-dose streptozotocin (STZ) diabetes model in C57BL/6J mice; type: in vivo, mouse
Method: To test the role of eIF5A in cytokine-mediated islet dysfunction, efforts were made to identify a mouse model of islet inflammation. The multiple low dose streptozotocin (STZ) model, in which mice are subjected to five daily intraperitoneal doses (at 55 mg/kg body weight) of STZ, is considered to provoke local islet inflammation and cytokine release, in part through the recruitment of CD11c+ dendritic cells that release pro-inflammatory cytokines in the area of STZ-induced cellular destruction (27 and 28).
C57BL/6J mice were injected intraperitoneally with either stabilized siRNA against eIF5A (si-eIF5A) or control siRNA (si-Control) daily for three days, then subjected to the multiple low-dose STZ protocol (see schematic in FIG. 1a). […] The effect of administering si-eIF5A on islet viability following STZ treatment was determined by performing immunohistochemical analysis of the pancreata of mice. […] To quantify the differences in islet mass between STZ-treated and untreated animals, morphometry of insulin-stained pancreatic sections was performed.
Based on the observed data, if hypusination of eIF5A by DHS is required for cytokine responsiveness in islets, then inhibition of DHS in vivo should protect against low dose STZ diabetes. To test this, C57BL/6J mice were treated with GC7 or vehicle and then subjected to low dose STZ injections. GC7 was delivered in one of two different ways: either by daily bolus intraperitoneal injections (4 mg/kg/day) or by continuous subcutaneous delivery (40 μg/kg/h) using implanted osmotic pumps. A protocol similar to that shown in FIG. 1A was employed in these studies, with GC7 injections or pump implants starting 3 days prior to STZ injections.
Small interfering RNA (siRNA) studies: Stabilized siRNAs for intraperitoneal injections were custom synthesized by Dharmacon using the siSTABLE® modification. Groups of 10 week-old C57BL/6J male mice (from Jackson Labs) received daily intraperitoneal injections of 1.6 mg/kg siRNA prepared in 0.9% saline or vehicle alone (0.9% saline) for 3 days. For in vitro studies, islets from each group of injected mice were harvested on the fourth day and pooled prior to analysis. Injections with each siRNA were performed on at least 3 different occasions. siRNA sequences were as follows: siControl, 5′-[…]-3′; si-eIF5A, 5′-[…]-3′. For siRNA studies in the rat β cell-derived line INS-1 (832/13), cells were transfected with a SMART Pool® siRNA against rat eIF5A1 (Dharmacon, #L-083855-01) or non-targeting control siRNA #1 (Dharmacon) using DharmaFECT® transfection reagent (Dharmacon).
Immunostaining and morphometric assessment of β cell mass: Immunostaining of pancreatic sections proceeded as described previously (72). For assessment of islet cell death in pancreatic sections, the technique of terminal deoxynucleotidyl transferase dUTP nick end labeling (TUNEL) was performed using biotinylated 16-dUTP (Roche) and Texas Red Neutravidin (Invitrogen). Digital images of each islet at 40× magnification were acquired using an Axio-Observer D1 microscope (Zeiss) inverted fluorescent microscope equipped with a high-resolution color camera. TUNEL-positive/insulin-positive nuclei were counted manually by an observer blinded to sample identity, and data were re-coded as the average number of TUNEL-positive nuclei per islet. β cell mass was calculated as described previously (73), but with some modifications. Briefly, pancreata from 3 mice per treatment group were rapidly dissected and weighed, fixed in 4% paraformaldehyde, paraffin-embedded, and longitudinally sectioned. Three sections/pancreas (approx. 75 μm apart) were subsequently immunostained for insulin and counterstained with hematoxylin as described (74), and digital images of each section at 10× magnification were acquired on an Axio-Observer Z1 microscope (Zeiss) fitted with an AxioCam high resolution color camera. […]

eIF5A = eIF5A nuclear-to-cytoplasmic translocation in INS-1 cells (immunofluorescence); type: cell-based, rat; settings: pretreatment, then cytokines 4 h
Method: Given the striking retention of Nos2 transcripts in the absence of eIF5A-Hyp, it was of interest to determine whether the intracellular distribution of eIF5A accounts for its effect on Nos2 nucleo-cytoplasmic shuttling. Immunofluorescence of eIF5A in fixed INS-1 cells, were thus performed. […] Upon treatment of cells with cytokines, there was a shift in the eIF5A distribution pattern from the nucleus to the cytoplasm.
Cytokine and inhibitor incubation studies: For cytokine incubation assays, a 1000× cocktail of cytokines containing 5 μg/ml IL1β, 10 μg/ml TNFα, and 100 μg/ml IFNγ (all prepared in 0.1% BSA in Tris-buffered saline) was applied at 1× final concentration to groups of 50 islets or 1×10^6 INS-1 (832/13) cells for a total of 4 h at 37° C. For GC7 incubation studies, GC7 was prepared at a stock concentration of 125 mM in 10 mM acetic acid and applied to cultures of 50 islets or 1×10^6 INS-1 cells to obtain the final concentrations indicted in the figures. […]
Immunofluorescence: Immunofluorescence of INS-1 cells proceeded essentially as described previously (71), using primary antibodies to eIF5A1 and secondary anti-mouse Alexa-488-conjugated antibody (Invitrogen), or by direct visualization of GFP fusion proteins at 488 nm. […] Quantitation of cytoplasic-to-nuclear ratios of eIF5A staining was performed using Axio-Vision Software, v. […]

[2] = tested on: eIF5A-Hyp binding to mRNA; test: RNA immunoprecipitation with eIF5A antibody in cytokine-treated INS-1 cells; type: cell-based, rat; settings: GC7 overnight, cytokines 4 h
Source text: The retention of both Nos2 transcripts and eIF5A in the nucleus upon inhibition of hypusination is consistent with a close relationship between the two molecules, such that eIF5A may serve to chaperone Nos2 transcripts from the nucleus to the cytoplasm in response to cytokine stimulation. eIF5A-Hyp binds to RNAs that contain the consensus sequence 5′-AAAUGU-3′ (47), which is present in the Nos2 mRNA. To determine if eIF5A-Hyp binds Nos2 mRNA, RNA immunoprecipitation assays using INS-1 cell total RNA were performed. […] In contrast, no co-precipitation of other NFkB target and non-target genes was observed.
RNA immunoprecipitation (RIP) assays: RIP assays from 1×10^7 formaldehyde cross-linked INS-1 cells were performed as described (75). Isotype-matched antibodies against eIF5A and the FLAG-M2 epitope (for control immunoprecipitations) were used at a final dilution of 1:100. Immunoprecipitated RNA was reversed transcribed and subjected to quantitative PCR amplification for selected genes as described above. All data represent the average of triplicate determinations from at least 3 independent RIP assays.

5′-AACGGAAUGACUUCCAGCUGA-3′ (siSTABLE modification, further chemistry not given here) [si-eIF5A]
average fasting blood glucose ([1]; siRNA 1.6 mg/kg i.p. daily for 3 days, then multiple low-dose STZ, day 7): 101 mg/dL | immunohistochemical staining for iNOS in islets ([1]; siRNA i.p., STZ, end of the study): undetectable | islet number and insulin staining of pancreata (immunohistochemistry) ([1]; siRNA i.p., multiple low-dose STZ): relatively preserved islet number and insulin granularity | glucose tolerance in IPGTT ([1]; siRNA i.p., multiple low-dose STZ, compared to si-Control-injected mice): improved glucose tolerance | reduction of β cell mass compared to non-STZ-treated controls ([1]; siRNA i.p., multiple low-dose STZ, morphometry of insulin-stained sections): 1.4 fold | iNOS induction in islets by immunoblot ([1]; siRNA i.p., 24 h after the first STZ treatment): attenuated

NCCCCCCCN=C(N)N [GC7]
STZ-induced glucose intolerance (GTT), osmotic pump GC7 ([1]; GC7 40 μg/kg/h continuous s.c. osmotic pump, started 3 days before STZ): near-complete protection | STZ-induced glucose intolerance (GTT), intraperitoneal GC7 ([1]; GC7 4 mg/kg/day i.p. bolus, started 3 days before STZ): near-complete protection | β cell mass (histomorphometry) ([1]; GC7-injected animals, STZ): full preservation of mass | iNOS production in islets ([1]; GC7-treated pump animals, STZ): suppression of iNOS production | TUNEL+ cells per islet ([1]; GC7 plus STZ, STZ alone 0.78): 0.42 | serum IL-6 levels ([1]; concurrent treatment with STZ): did not affect IL-6 levels | insulin secretion at 0 and 30 min during glucose challenge ([1]; pump-implanted animals, STZ): normal insulin secretory response | cytokine-induced translocation of eIF5A (eIF5A): failed to induce the nuclear to cytoplasmic translocation of eIF5A | co-precipitation of mRNA with eIF5A antibody [2]: no co-precipitation of any mRNA species
